Test results published in PubChem BioAssay (NCI).
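How tested: cells in 96-well plates exposed to compound for 48 hours at five concentrations. At the TGI there is no net growth.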 Where a SMILES comes first, the peptide text is derived from it. [ ]: non-standard residue; d: D form. The star is where a group is joined. Bn2Val = CC(C)[C@@H](C(=O)*)N(Cc1ccccc1)Cc1ccccc1; NH(4-Cl-benzyl) = Clc1ccc(CN*)cc1; NMeV = CN[C@H](C(=O)O)C(C)C; dNMeA = CN[C@H](C)C(=O)O

How the values were obtained:
Assay in all cases: NCI tumour cell line growth inhibition, 48 h
A549 NSCLC = system: A549 NSCLC
BT-549 breast = system: BT-549 breast
CCRF-CEM leukemia = system: CCRF-CEM leukemia
HCT-116 colon = system: HCT-116 colon
HCT-15 colon = system: HCT-15 colon
M14 melanoma = system: M14 melanoma
MCF7 breast = system: MCF7 breast
SW-620 colon = system: SW-620 colon
T-47D breast = system: T-47D breast
UO-31 renal = system: UO-31 renal

Compound | TGI (A549 NSCLC) [µM] | TGI (BT-549 breast) [µM] | TGI (CCRF-CEM leukemia) [µM] | TGI (HCT-116 colon) [µM] | TGI (HCT-15 colon) [µM] | TGI (M14 melanoma) [µM] | TGI (MCF7 breast) [µM] | TGI (SW-620 colon) [µM] | TGI (T-47D breast) [µM] | TGI (UO-31 renal) [µM]
CCCCCCCCCCCCCCCCCCNc1nc(=O)n(C2CC(O)C(COP(=O)(O)O)O2)cc1F (stereo not drawn) | > 100 | > 100 | 81.2 | > 100 | > 100 | > 100 | > 100 | > 100 | > 100 | > 100
Cn1c(=O)oc2nc(-c3ccccc3)cc(C(F)(F)F)c21 | > 100 | > 100 |  | > 100 | > 100 | > 100 | > 100 | > 100 | > 100 | > 100
O=C(Nc1ccccc1C(=O)NCc1ccccc1)/C(=C/c1ccccc1)NC(=O)c1ccccc1 | > 100 | > 100 | > 100 | > 100 | > 100 | > 100 | > 100 | > 100 | > 100 | > 100
O=C(O)COc1cc(-c2ccccc2)nc2cc(F)ccc12 | > 100 | > 100 | > 100 | > 100 | > 100 | > 100 | > 100 | > 100 | > 100 | > 100
O=C1OC[C@H]2[C@@H]1[C@H]1O[C@@H]2C2=C(CCC2)C1=O | > 100 | > 100 | > 100 | > 100 | > 100 | > 100 | > 100 | > 100 | > 100 | > 100
Cc1nn(-c2ccccc2)c(C)c1/C=N/N=C1\S/C(=C\c2ccc(Cl)cc2)C(=O)N1c1ccccc1 | > 100 | > 100 | > 100 | > 100 | > 100 | > 100 | > 100 | > 100 | > 100 | > 100
CC(C)C(C/C=C1\CC(CO)(COC(=O)C2CCCCC2)OC1=O)C(C)C (stereo not drawn) | 32 | 47.2 | 43 | 36.5 | 38.8 | 48.4 | 39 | 40.5 | 48 | 32.1
CCOC(=O)c1cc(C)nc2c1c(=O)n(-c1ccccc1)c(=O)n2CCCCN1CCN(c2ccccc2)CC1 | > 100 | > 100 |  | > 100 | > 100 | > 100 | > 100 | > 100 | > 100 | 65.2
O=C1c2c(O)cccc2-c2nn(CCNCCO)c3ccc(NCCNCCO)c1c23 | 0.482 | 1.42 | 0.0631 | 2.75 | 70.5 | 2.02 | 3.15 | 7.09 | 4.61 | 10.2
C=CCOn1c(C=C)nc2ccc(C)cc21 | 68.5 | 41.2 | 7.21 | 24.4 | 68.2 | 32.6 | 24.9 | 40.8 | 43.5 | 27.4
COc1ccc(C(SC2C(O)C(CO)OC2n2ccc(=O)[nH]c2=O)(c2ccccc2)c2ccc(OC)cc2)cc1 (stereo not drawn) | 45.4 | 33.6 | > 100 | 29.2 | 33.3 | 25.8 | 43.7 | 63.6 | 48.7 | 33.4
O=C1CC(=O)n2cnc3cccc(c32)N1 | > 100 | > 100 | > 100 | > 100 | > 100 | > 100 | > 100 | > 100 | > 100 | > 100
C/C(=N\Nc1nc2cc(C(F)(F)F)ccc2s1)c1ccccn1 |  | > 40.1 | > 100 | 2.98 | > 38.9 | 7.14 |  | 7.65 | 15.4 | 4.89
CC(=O)NC1C(OCc2ccccc2)OC(CO)C(O)C1OC(C)C(=O)NC(C(=O)NC(CCC(=O)NCCCCNc1c2ccccc2nc2cccc([N+](=O)[O-])c12)C(N)=O)C(C)C (stereo not drawn) | 7.77 | 20.8 |  | 10.5 | 40.2 | 3.32 | > 44 | > 32.9 | > 38.2 | 13.4
CC(C)(C)n1c(=O)[nH]c(=O)n1C(C)(C)C | > 100 | > 100 | > 100 | > 100 | > 100 | > 100 | > 100 | > 100 |  | > 100
CC(Oc1ccccc1Cl)C(=O)NN1C(=O)CSC1c1ccccc1 (stereo not drawn) | > 100 | > 100 | > 100 | > 100 | > 100 | > 100 | > 100 | > 100 | > 100 | > 100
CC(C)[C@H](NC(=O)[C@H](C(C)C)N(Cc1ccccc1)Cc1ccccc1)C(=O)N(C)[C@H](C(=O)N1CCC[C@H]1C(=O)N(C)[C@H](C)C(=O)NCc1ccc(Cl)cc1)C(C)C (Bn2Val-V[NMeV]P[dNMeA]-{NH(4-Cl-benzyl)}) | > 100 | 13.5 | 7.43 | 11.7 | 41.2 | 30.1 |  | > 100 | > 100 | 
NN=C(CC(O)(C(F)(F)Cl)C(F)(F)Cl)CC(O)(C(F)(F)Cl)C(F)(F)Cl | > 10 | > 10 | > 10 | > 10 | > 10 | > 10 | > 10 | > 10 | > 10 | 
c1ccc(/C(=N/Nc2ccncn2)c2ccccn2)cc1 | > 100 | > 100 | > 100 | > 100 | > 100 | 30.5 | > 100 | > 100 |  | 67.3
Cc1ccc(S(=O)CC(CF)OCn2cc(C)c(=O)[nH]c2=O)cc1 (stereo not drawn) | > 100 | > 100 |  | > 100 | > 100 | > 100 | > 100 | > 100 | > 100 | > 100
CC(=O)Nc1ccc(OC/C(N)=N/NC(=O)c2ccncc2)cc1 | > 100 | > 100 | > 100 | > 100 | > 100 | > 100 | > 100 | > 100 | > 100 | 
